# In patent EP0073849A1, “Novel phenyl-1,2,3,4-tetrahydrocarbazoles, their preparation and pharmaceutical compositions containing them” (priority 1981, dated 1983):
# Columns and labels:
# [1] = test system: rat muricide; assay: rat muricide test; type: in vivo; settings: ip, intraperitoneal administration
# Excerpt: In the rat muricide test (based on the method of Horovitz et al., Int. J.
# [2] = test system: abnormal behaviour of beagles; assay: improvement of abnormal behaviour in beagles; type: in vivo; settings: Canis lupus familiaris, po; read-out: MED for improvement of abnormal behaviour in beagles
# [3] = test system: beagles with normal behaviour; assay: in vivo; settings: dog, po
# [4] = test system: behaviour, neurologic function, autonomic function; settings: rat, in vivo, ip
# [5] = in vivo; parameters: species or system beagles; settings: dog, po
# [6] = in vivo; settings: rat, ip
SMILES,ED50 [1] [mg/kg],minimal effective dose [2] [mg/kg],dose causing decreased motor activity and passivity [3] [mg/kg],dose causing decreased motor activity and passivity as multiple of the MED [3],dose causing tremors and mydriasis [3] [mg/kg],"dosage levels that cause changes in behaviour, in neurologic function or in autonomic function [4]",NOAEL at 6 h [5] [mg/kg],selectivity ratio [6]
CN(C)CCCN1c2ccccc2CCc2ccccc21 [Imipramine],6.4,10,30,three,10,30 mg./kg,–,–
"COc1ccc2[nH]c3c(c2c1)CC(c1ccccc1)CC3 (stereo not drawn) [Test compound, 6-Methoxy-3-phenyl-1,2,3,4-tetrahydrocarbazole]",1.7,10,–,–,–,100-1000 mg./kg,> 60,50 to 500
CN(C)CCC=C1c2ccccc2CCc2ccccc21 [Amitriptyline],5.2,–,–,–,–,–,–,–
